Legend:
[1] = target: T1, CRTH2 (Homo sapiens (Human), UniProt Q9Y5Y4); assay: CRTH2 inhibitory activity in CRTH2-expressing cells (PGD2-induced intracellular calcium increase, K562); assay type: cell-based; conditions: 200 nM PGD2, read-out: IC50, inhibition of intracellular calcium concentration increase induced by PGD2
Summary of the method: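 CRTH2-expressing K562 cells (2×10^6 cells/ml, 10 mM HEPES pH 7.4, 0.1% BSA) were loaded with […] (4 μM) for 30 min at room temperature, preincubated with compound for 2 min, then stimulated with 200 nM PGD2. Calcium rise was read by FDSS3000; IC50 from inhibition curves.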

[2] = Metabolism stability test; assay type: in vitro ADME; conditions: human liver microsomes, 30 minutes, 37° C., NADPH, 0.5 μmol/L of the compound
Procedure: Using a commercially available pooled human hepatic microsomes, a compound of the present invention was reacted for a constant time, a remaining rate was calculated by comparing a reacted sample and an unreacted sample, thereby, a degree of metabolism in liver was assessed.
A reaction was performed (oxidative reaction) at 37° C. for 0 minute or 30 minutes in the presence of 1 mmol/L NADPH in 0.2 mL of a buffer (50 mmol/L Tris-HCl pH 7.4, 150 mmol/L potassium chloride, 10 mmol/L magnesium chloride) containing 0.5 mg protein/mL of human liver microsomes. After the reaction, 50 μL of the reaction mixture was added to 100 μL of a methanol/acetonitrile=1/1 (v/v), mixed and centrifuged at 3000 rpm for 15 minutes. The compound of the present invention in the supernatant was quantified by LC/MS/MS, and a remaining amount of the compound of the present invention after the reaction was calculated, letting a compound amount at 0 minute reaction time to be 100%. Glucuronidation reaction was in the presence of 5 mM UDP-glucuronic acid in place of NADPH, followed by similar operations.

[3] = Solubility test (1% DMSO addition, artificial intestinal juice pH 6.8); assay type: physicochemical; conditions: fassgf or other biorelevant, kinetic from dmso stock, artificial intestinal juice pH 6.8, 16 hours at 25° C.
Procedure: A 10 mmol/L solution of the compound of the present invention is prepared with DMSO, and 6 μL of the compound solution is added to 594 μL of an artificial intestinal juice (water and 118 mL of 0.2 mol/L NaOH reagent are added to 250 mL of 0.2 mol/L potassium dihydrogen phosphate reagent to reach 1000 mL) with a pH of 6.8. The mixture is left standing for 16 hours at 25° C., and the mixture is vacuum-filtered. The filtrate is two-fold diluted with methanol/water=1/1 (V/V), and the compound concentration in the filtrate is measured with HPLC or LC/MS/MS by the absolute calibration method.

[4] = target: CYP2C9 (Homo sapiens (Human), UniProt P11712); assay: CYP inhibition test, tolbutamide methyl-hydroxylation; assay type: in vitro ADME; conditions: pooled human hepatic microsome, 100 μmol/L tolbutamide
Source text: (§1) Using commercially available pooled human hepatic microsome, and employing, as markers, 7-ethoxyresorufin O-deethylation (CYP1A2), tolbutamide methyl-hydroxylation (CYP2C9), mephenyloin 4′-hydroxylation (CYP2C19), dextromethorphan O-demethylation (CYP2D6), and terfenedine hydroxylation as typical substrate metabolism reactions of human main five CYP enzyme forms (CYP1A2, 2C9, 2C19, 2D6, 3A4), an inhibitory degree of each metabolite production amount by a compound of the present compound was assessed.
(§2) The reaction conditions were as follows: substrate, 0.5 μmol/L ethoxyresorufin (CYP1A2), 100 μmol/L tolbutamide (CYP2C9), 50 μmol/L S-mephenyloin (CYP2C19), 5 μmol/L dextromethorphan (CYP2D6), 1 μmol/L terfenedine (CYP3A4); reaction time, 15 minutes; reaction temperature, 37° C.; enzyme, pooled human hepatic microsome 0.2 mg protein/mL; concentration of a compound of the present invention, 1, 5, 10, 20 μmol/L (four points).
(§3) Each five kinds of substrates, human hepatic microsome, or a compound of the present invention in 50 mM Hepes buffer as a reaction mixture was added to a 96-well plate at the composition as described above, NADPH, as a cofactor was added to initiate metabolism reactions as markers and. After the incubation at 37° C. for 15 minutes, a methanol/acetonitrile=1/1 (v/v) solution was added to stop the reaction. After the centrifugation at 3000 rpm for 15 minutes, resorufin (CYP1A2 metabolite) in the supernatant was quantified by a fluorescent multilabel counter and tolbutamide hydroxide (CYP2C9 metabolite), mephenyloin 4′ hydroxide (CYP2C19 metabolite), dextrorphan (CYP2D6 metabolite), and terfenadine alcohol (CYP3A4 metabolite) were quantified by LC/MS/MS.

[5] = target: CYP2C19 (Homo sapiens (Human), UniProt P33261); assay: CYP inhibition test, mephenyloin 4'-hydroxylation; assay type: in vitro ADME; conditions: pooled human hepatic microsome, 50 μmol/L S-mephenyloin
Source text: as §1, §2, §3

[6] = target: CYP2D6 (Homo sapiens (Human), UniProt P10635); assay: CYP inhibition test, dextromethorphan O-demethylation; assay type: in vitro ADME; conditions: pooled human hepatic microsome, 5 μmol/L dextromethorphan
Source text: as §1, §2, §3

[7] = target: Human DP1 receptor (Homo sapiens (Human), UniProt Q13258); assay: Human DP1 inhibitory activity in DP1-expressing cell (PGD2-induced cAMP); assay type: cell-based
Procedure: Compounds were categorized as AA (cAMP is less than 100 nM) and A (cAMP is more than 100 nM and less than 5000 nM) as shown in Table 99 and 100.

[8] = target: T1, CRTH2; assay: CRTH2 inhibitory activity in human eosinophil (PGD2 induced eosinophil shape change); assay type: cell-based; conditions: human peripheral blood, 40 nM PGD2, forward scatter; read-out: IC50, inhibition of PGD2 induced eosinophil shape change
Procedure: CRTH2 inhibitory activity in human eosinophil was determined as inhibitory activity of PGD2 induced eosinophil shape change.
Human peripheral blood was mixed with compounds of the present invention at 37° C. After 5 min, the blood was treated with 40 nM of PGD2 for 10 min and fixed. The blood was hemolyzed and centrifuged. Blood cells were resuspended in PBS and measured forward scatter (FS) using flow cytometer (FACSAria). Inhibition ratio was defined by comparing FS with and without compound, and IC50 for each compound was calculated from inhibitory curve.

[9] = category of cAMP IC50, human DP1 receptor expressing Jurkut cell
[10] = IC50 of PGD2 (60 nM)-induced cAMP increase, human DP1 receptor expressing Jurkut cell

Chain of Human DP1 receptor (Q13258 whole entry): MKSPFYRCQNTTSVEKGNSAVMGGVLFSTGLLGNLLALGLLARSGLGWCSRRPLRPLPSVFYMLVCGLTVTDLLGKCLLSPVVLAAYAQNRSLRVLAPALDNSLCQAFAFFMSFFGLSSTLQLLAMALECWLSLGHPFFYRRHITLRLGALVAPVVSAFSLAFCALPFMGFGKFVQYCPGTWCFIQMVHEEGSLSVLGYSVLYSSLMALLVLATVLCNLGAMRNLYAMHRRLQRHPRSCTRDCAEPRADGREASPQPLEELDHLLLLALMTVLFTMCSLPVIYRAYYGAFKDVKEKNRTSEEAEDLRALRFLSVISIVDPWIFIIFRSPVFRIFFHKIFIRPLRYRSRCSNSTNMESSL
Chain of CYP2D6 (P10635 whole entry): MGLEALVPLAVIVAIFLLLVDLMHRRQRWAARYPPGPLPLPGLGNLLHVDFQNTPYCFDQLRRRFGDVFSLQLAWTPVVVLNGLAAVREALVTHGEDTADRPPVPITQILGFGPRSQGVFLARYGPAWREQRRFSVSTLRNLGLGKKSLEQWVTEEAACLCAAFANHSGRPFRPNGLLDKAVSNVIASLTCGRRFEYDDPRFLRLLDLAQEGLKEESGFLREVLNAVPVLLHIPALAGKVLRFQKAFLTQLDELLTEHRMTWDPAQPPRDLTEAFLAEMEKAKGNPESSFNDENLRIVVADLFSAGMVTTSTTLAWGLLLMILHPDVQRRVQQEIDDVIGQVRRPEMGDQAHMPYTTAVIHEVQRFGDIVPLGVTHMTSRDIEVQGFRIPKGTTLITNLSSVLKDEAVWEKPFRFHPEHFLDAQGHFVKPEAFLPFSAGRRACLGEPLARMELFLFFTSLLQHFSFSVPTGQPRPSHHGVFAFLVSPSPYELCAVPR
T1 sequence (Q9Y5Y4 whole entry): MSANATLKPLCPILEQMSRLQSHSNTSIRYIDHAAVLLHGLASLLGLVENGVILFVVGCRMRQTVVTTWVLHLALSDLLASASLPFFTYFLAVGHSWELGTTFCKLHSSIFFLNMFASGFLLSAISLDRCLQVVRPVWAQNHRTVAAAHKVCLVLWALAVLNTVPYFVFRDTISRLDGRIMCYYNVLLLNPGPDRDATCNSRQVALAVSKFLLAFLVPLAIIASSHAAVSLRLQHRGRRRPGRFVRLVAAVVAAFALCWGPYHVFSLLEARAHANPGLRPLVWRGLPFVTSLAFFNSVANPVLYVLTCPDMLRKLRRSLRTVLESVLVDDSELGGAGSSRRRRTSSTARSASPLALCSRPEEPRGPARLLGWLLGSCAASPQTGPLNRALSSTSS
Chain of CYP2C19 (P33261 whole entry): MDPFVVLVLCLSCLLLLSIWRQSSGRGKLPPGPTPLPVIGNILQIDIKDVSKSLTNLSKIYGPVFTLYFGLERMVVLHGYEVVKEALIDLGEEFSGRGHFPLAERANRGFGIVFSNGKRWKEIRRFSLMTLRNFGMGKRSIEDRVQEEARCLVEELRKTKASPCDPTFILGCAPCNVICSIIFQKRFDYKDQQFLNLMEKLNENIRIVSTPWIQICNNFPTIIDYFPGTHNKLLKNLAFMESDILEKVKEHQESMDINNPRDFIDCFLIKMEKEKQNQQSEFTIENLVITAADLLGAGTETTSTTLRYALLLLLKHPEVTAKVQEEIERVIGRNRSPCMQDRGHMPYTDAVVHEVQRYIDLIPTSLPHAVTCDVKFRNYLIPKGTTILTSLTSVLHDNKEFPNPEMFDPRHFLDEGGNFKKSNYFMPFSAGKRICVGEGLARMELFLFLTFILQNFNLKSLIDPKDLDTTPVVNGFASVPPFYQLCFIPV
Chain of CYP2C9 (P11712 whole entry): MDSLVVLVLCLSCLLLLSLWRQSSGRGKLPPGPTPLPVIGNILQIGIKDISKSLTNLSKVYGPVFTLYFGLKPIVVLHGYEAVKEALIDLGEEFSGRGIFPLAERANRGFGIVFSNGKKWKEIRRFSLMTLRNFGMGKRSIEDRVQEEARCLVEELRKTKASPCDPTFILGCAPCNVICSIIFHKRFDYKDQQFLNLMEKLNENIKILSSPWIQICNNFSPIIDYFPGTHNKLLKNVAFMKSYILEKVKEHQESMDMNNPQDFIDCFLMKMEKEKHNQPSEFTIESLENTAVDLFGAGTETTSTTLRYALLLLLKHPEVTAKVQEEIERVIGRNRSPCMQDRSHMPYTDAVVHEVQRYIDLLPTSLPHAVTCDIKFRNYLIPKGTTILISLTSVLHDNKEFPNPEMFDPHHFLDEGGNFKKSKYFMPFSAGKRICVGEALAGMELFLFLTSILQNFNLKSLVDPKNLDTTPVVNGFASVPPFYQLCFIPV

| Structure (SMILES) | IC50 [1] [nM] | remaining rate after reaction (result heading prints '% inhibition') [2] [%] | solubility at 16 h [3] [µM] | IC50 [4] [nM] | IC50 [5] [nM] | IC50 [6] [nM] | IC50 [7, 9] [nM] | IC50 [7, 10] [nM] | IC50 [8] [nM] |
| --- | --- | --- | --- | --- | --- | --- | --- | --- | --- |
| CC(C)Oc1ccc(S(=O)(=O)N2C[C@@H](C)[C@@H](n3nc(CC(=O)O)c4ccc(F)cc43)C2)cn1 [Compound I-57] | 210 | 86.9 | > 50 | > 20000 | > 20000 | > 20000 | < 100 | – | – |
| CCOc1ccc(S(=O)(=O)N2C[C@@H](C)[C@@H](n3nc(CC(=O)O)c4ccccc43)C2)cn1 [Compound I-96] | 230 | 99.3 | > 50 | > 20000 | > 20000 | > 20000 | < 100 | 40 | 270 |
| CC(C)Oc1ccc(S(=O)(=O)N2C[C@@H](C)[C@@H](n3nc(CC(=O)O)c4ccc(F)cc43)C2)c(F)c1 [Compound I-52] | 140 | 97.2 | > 50 | > 20000 | > 20000 | > 20000 | < 100 | – | – |

These reach a lower IC50 [1]. Values come first.

| IC50 [1] [nM] | remaining rate after reaction (result heading prints '% inhibition') [2] [%] | solubility at 16 h [3] [µM] | IC50 [4] [nM] | IC50 [5] [nM] | IC50 [6] [nM] | IC50 [7, 9] [nM] | IC50 [7, 10] [nM] | IC50 [8] [nM] | Structure (SMILES) |
| --- | --- | --- | --- | --- | --- | --- | --- | --- | --- |
| 50 | – | > 50 | > 20000 | > 20000 | > 20000 | < 100 | 10 | 15 | CC(C)Oc1ccc(S(=O)(=O)N2C[C@@H](C)[C@@H](n3nc(CC(=O)O)c4ccc(F)cc43)C2)cc1 [Compound I-37] |
| 33 | – | > 50 | > 20000 | > 20000 | > 20000 | < 100 | 23 | 34 | CC(C)Oc1ccc(S(=O)(=O)N2C[C@H](n3nc(CC(=O)O)c4ccc(F)cc43)C[C@H]2C#N)cc1 [Compound I-7] |

Source: patent US9725442B2, “Heterocyclic derivative having PGD2 receptor antagonist activity” (Shionogi & Co., Ltd., priority 2011, dated 2017)
